Laboratory results: BindingDB's records for doi:10.1021/jm010294e (Novartis Institute For Biomedical Reasearch, 2001)

The compounds below were run against Apolipoprotein B-100 (Homo sapiens, UniProt P04114) (assay: Inhibition of apolipoprotein B (apoB) secreted by human hepatoma cells (Hep G2) […]).
Sequence of Apolipoprotein B-100 (P04114 whole entry C1422Y): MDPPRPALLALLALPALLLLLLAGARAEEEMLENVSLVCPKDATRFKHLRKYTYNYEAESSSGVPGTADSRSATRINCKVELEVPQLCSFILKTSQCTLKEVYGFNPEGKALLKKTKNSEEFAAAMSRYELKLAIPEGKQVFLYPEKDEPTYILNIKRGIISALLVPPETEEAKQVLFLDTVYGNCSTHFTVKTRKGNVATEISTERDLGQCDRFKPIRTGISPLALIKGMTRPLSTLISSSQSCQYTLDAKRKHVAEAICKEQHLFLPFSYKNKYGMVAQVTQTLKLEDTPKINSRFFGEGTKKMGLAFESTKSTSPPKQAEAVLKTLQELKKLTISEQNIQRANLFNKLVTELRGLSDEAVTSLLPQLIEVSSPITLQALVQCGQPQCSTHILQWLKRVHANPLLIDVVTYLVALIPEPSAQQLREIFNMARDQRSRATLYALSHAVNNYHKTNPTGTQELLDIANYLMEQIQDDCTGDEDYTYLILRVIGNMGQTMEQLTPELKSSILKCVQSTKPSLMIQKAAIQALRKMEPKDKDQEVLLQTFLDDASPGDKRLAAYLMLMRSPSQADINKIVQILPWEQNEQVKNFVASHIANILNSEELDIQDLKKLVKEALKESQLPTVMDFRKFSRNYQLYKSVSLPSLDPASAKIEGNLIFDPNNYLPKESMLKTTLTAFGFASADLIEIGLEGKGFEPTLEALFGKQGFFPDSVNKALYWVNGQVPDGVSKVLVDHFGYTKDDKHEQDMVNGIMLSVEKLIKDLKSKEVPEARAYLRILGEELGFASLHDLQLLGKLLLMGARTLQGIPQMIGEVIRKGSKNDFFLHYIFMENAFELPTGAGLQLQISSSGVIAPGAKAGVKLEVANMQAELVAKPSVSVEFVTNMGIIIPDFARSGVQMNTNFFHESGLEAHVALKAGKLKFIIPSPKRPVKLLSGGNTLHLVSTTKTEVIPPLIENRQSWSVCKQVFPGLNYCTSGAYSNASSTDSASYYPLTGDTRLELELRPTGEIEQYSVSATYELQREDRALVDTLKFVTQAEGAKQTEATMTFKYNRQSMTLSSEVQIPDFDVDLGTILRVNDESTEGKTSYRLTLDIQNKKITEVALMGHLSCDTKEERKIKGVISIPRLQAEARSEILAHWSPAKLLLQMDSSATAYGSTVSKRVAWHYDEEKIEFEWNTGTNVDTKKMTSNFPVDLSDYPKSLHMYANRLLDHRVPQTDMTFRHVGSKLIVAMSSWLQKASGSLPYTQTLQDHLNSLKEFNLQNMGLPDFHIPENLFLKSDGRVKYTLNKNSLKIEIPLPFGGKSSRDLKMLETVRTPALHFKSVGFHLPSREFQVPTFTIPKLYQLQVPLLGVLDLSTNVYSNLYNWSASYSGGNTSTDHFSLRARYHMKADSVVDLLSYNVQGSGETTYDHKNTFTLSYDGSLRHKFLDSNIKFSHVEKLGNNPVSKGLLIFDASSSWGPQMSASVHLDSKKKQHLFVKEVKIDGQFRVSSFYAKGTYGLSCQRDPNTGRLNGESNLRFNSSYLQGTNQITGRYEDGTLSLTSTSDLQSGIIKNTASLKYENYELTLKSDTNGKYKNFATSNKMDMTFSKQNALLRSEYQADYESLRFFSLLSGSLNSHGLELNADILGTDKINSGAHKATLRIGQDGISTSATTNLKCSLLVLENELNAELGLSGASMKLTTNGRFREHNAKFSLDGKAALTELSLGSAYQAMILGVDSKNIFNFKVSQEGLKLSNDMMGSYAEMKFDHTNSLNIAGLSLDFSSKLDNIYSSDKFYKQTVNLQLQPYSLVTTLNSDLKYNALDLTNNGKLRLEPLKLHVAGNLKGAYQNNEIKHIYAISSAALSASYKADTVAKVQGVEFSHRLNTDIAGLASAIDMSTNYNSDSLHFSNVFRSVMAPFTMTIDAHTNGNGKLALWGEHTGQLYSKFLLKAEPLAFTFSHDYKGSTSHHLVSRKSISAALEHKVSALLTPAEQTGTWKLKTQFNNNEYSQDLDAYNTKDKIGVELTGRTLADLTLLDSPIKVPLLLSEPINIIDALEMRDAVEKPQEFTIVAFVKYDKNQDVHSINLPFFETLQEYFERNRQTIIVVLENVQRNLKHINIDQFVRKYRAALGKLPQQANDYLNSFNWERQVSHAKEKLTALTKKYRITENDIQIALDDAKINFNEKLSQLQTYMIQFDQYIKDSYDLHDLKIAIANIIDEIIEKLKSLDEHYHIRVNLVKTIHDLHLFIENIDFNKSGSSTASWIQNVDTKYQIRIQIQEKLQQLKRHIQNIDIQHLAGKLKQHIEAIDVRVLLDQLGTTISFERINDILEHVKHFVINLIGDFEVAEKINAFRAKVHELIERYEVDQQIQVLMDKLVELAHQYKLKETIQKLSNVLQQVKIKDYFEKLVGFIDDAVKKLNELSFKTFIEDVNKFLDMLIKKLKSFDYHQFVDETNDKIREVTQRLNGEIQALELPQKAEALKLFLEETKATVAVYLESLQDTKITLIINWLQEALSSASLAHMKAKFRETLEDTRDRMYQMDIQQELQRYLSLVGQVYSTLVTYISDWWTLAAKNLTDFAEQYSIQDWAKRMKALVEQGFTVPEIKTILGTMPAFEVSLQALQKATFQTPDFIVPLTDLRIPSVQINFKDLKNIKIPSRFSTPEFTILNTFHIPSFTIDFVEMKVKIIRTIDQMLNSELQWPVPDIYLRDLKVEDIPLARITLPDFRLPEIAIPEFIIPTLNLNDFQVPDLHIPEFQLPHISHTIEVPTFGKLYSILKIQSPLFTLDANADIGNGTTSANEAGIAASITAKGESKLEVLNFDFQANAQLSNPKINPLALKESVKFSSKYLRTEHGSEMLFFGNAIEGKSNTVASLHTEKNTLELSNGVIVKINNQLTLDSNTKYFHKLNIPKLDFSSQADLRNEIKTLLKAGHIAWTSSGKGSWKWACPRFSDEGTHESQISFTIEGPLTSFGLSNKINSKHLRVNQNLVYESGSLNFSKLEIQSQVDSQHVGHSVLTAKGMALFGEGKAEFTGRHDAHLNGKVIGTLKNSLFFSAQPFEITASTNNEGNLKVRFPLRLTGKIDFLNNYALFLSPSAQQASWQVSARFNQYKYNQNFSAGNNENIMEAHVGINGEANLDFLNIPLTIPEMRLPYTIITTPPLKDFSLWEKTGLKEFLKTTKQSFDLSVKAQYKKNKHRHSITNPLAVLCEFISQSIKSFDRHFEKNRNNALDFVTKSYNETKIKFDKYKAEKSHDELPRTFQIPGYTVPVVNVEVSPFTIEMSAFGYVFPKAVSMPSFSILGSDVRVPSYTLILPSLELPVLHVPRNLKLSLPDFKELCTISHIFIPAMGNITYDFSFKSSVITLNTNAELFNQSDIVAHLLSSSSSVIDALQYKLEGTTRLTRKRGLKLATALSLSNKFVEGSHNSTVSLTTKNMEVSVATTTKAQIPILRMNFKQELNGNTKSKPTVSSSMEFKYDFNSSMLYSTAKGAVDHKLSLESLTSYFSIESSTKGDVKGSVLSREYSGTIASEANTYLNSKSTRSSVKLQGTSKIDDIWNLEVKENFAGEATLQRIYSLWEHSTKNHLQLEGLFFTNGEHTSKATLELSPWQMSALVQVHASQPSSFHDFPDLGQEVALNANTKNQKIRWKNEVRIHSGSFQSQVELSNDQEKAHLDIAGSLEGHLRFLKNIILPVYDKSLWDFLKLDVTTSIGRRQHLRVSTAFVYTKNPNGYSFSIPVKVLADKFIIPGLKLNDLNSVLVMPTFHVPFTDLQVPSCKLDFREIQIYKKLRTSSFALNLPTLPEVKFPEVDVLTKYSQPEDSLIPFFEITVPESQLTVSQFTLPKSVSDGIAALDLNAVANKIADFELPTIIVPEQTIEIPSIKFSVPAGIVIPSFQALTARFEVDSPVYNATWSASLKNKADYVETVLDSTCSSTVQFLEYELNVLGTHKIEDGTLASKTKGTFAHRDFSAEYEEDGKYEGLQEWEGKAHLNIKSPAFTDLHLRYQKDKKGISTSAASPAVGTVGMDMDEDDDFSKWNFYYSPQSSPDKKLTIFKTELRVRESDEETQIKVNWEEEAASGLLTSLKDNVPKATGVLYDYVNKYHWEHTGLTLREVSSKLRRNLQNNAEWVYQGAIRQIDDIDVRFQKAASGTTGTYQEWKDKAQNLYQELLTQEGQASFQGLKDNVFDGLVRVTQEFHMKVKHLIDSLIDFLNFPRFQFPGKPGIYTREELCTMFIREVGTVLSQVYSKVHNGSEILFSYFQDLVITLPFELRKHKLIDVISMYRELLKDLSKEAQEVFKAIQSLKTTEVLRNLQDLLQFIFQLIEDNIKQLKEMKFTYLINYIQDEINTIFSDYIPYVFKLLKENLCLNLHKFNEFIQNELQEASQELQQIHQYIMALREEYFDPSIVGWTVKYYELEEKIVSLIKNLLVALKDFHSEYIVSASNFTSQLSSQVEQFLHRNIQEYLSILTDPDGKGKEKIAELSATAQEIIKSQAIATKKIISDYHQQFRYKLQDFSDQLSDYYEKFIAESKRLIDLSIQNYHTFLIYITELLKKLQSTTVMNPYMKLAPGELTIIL
For `COC(=O)NC1Cc2ccc(NC(=O)c3cc(C)cc(C)c3-c3ccc(Cl)cc3)cc2C1` (configuration not stated) [{5-[(4'-Chloro-4,6-dimethyl-biphenyl-2-carbonyl)-amino]-indan-2-yl}-carbamic acid methyl ester], the IC50 was 3.4 nM.
`COC(=O)NCC1Cc2ccc(NC(=O)c3cccc(C)c3-c3ccc(Cl)cc3)cc2C1` (configuration not stated) [{5-[(4'-Chloro-6-methyl-biphenyl-2-carbonyl)-amino]-indan-2-ylmethyl}-carbamic acid methyl ester] gave an IC50 of 8.7 nM.
For `COC(=O)N[C@@H]1Cc2ccc(NC(=O)c3ccccc3-c3ccc(C(F)(F)F)cc3)cc2C1` [{5-[(4'-Trifluoromethyl-biphenyl-2-carbonyl)-amino]-indan-2-yl}-carbamic acid methyl ester], the IC50 was 5.2 nM.
`COC(=O)N[C@H]1Cc2ccc(NC(=O)c3ccccc3-c3ccc(C(F)(F)F)cc3)cc2C1` [{5-[(4'-Trifluoromethyl-biphenyl-2-carbonyl)-amino]-indan-2-yl}-carbamic acid methyl ester] was tested, and the IC50 was 1.9 nM.
`COC(=O)N[C@H]1Cc2ccc(NC(=O)c3cc(C(F)(F)F)ccc3-c3ccc(C(F)(F)F)cc3)cc2C1` [{5-[(4,4'-Bis-trifluoromethyl-biphenyl-2-carbonyl)-amino]-indan-2-yl}-carbamic acid methyl ester] gave an IC50 of 7.5 nM.
With `COC(=O)NCC1Cc2ccc(NC(=O)c3cc(C)cc(C)c3-c3ccc(C(F)(F)F)cc3)cc2C1` (configuration not stated) [{5-[(4,6-Dimethyl-4'-trifluoromethyl-biphenyl-2-carbonyl)-amino]-indan-2-ylmethyl}-carbamic acid methyl ester] the IC50 was 2.2 nM.
`COC(=O)N[C@@H]1Cc2ccc(NC(=O)c3cc(C)cc(C)c3-c3ccc(C(F)(F)F)cc3)cc2C1` [{5-[(4,6-Dimethyl-4'-trifluoromethyl-biphenyl-2-carbonyl)-amino]-indan-2-yl}-carbamic acid methyl ester] gave an IC50 of 2.5 nM.
`COC(=O)N[C@H]1Cc2ccc(NC(=O)c3cc(C)cc(C)c3-c3ccc(C(F)(F)F)cc3)cc2C1` [{5-[(4,6-Dimethyl-4'-trifluoromethyl-biphenyl-2-carbonyl)-amino]-indan-2-yl}-carbamic acid methyl ester] showed an IC50 of 1.1 nM.
`COC(=O)N[C@H]1Cc2ccc(NC(=O)c3cc(C)ccc3-c3ccc(C(F)(F)F)cc3)cc2C1` [{5-[(4-Methyl-4'-trifluoromethyl-biphenyl-2-carbonyl)-amino]-indan-2-yl}-carbamic acid methyl ester] gave an IC50 of 2.2 nM.
`COC(=O)N[C@H]1Cc2ccc(NC(=O)c3cccc(C(F)(F)F)c3-c3ccc(C(F)(F)F)cc3)cc2C1` [{5-[(6,4'-Bis-trifluoromethyl-biphenyl-2-carbonyl)-amino]-indan-2-yl}-carbamic acid methyl ester] showed an IC50 of 1.8 nM.
With `COC(=O)NCC1Cc2ccc(NC(=O)c3cccc(C)c3-c3ccc(C(F)(F)F)cc3)cc2C1` (configuration not stated) [{5-[(6-Methyl-4'-trifluoromethyl-biphenyl-2-carbonyl)-amino]-indan-2-ylmethyl}-carbamic acid methyl ester] the IC50 was 4.1 nM.
In the case of `COC(=O)N[C@H]1Cc2ccc(NC(=O)c3cccc(C)c3-c3ccc(C(F)(F)F)cc3)cc2C1` [{5-[(6-Methyl-4'-trifluoromethyl-biphenyl-2-carbonyl)-amino]-indan-2-yl}-carbamic acid methyl ester], the IC50 is reported as 0.7 nM.
